From patent publication US12528773B2, “Non-lysosomal glucosylceramidase inhibitors and uses thereof” (ALECTOS THERAPEUTICS INC., priority 2020, dated 2026)
Where two headings read alike, the source gives them in different places.

Assays:
[1] = test system: rat intestinal alpha-glucosidases; assay: Inhibition of rat intestinal alpha-glucosidases (rat intestinal lysate, glucose detection); assay type: biochemical; settings: compound concentration 25 μM, sucrose as substrate
Method: Assay for Determination of Inhibition of Rat Intestinal Alpha-Glucosidases
Various concentrations of test compounds were prepared in DMSO and then diluted into buffer consisting of 100 mM citric acid, 200 mM disodium phosphate, pH 6.0. Rat intestinal acetone powder (Sigma) was dissolved to 12.5 mg/mL in assay buffer and sonicated in an ice bath, centrifuged, and the supernatant was collected, aliquoted and stored at −20° C. until use. On the day of the assay, the rat intestinal lysate was diluted to 6.25 mg/mL (sucrose reactions) and 2.1 mg/ml (maltose reactions) in assay buffer. The final reaction solutions for sucrose contained 2.1 mg/mL rat intestinal lysate, 40 mM sucrose, 50 or 25 μM of test compound, and 3.3% DMSO. The final reaction solution for maltose contained 0.69 mg/mL rat intestinal lysate, 10 mM maltose, 50 or 25 μM of test compound, and 3.3% DMSO. The reaction was initiated by the addition of substrate (sucrose or maltose) and allowed to proceed at 37° C. for 20 min to assess rat intestinal alpha-glycosidase activities. The reaction was stopped by addition of 20 μL of 2 M Tris-HCl, pH 7.0. The glucose produced during the reaction was detected using a commercial Amplex Red glucose detection kit from Thermo Fisher. For a full plate, the Amplex Red detection mixture was prepared by mixing 35 μL glucose oxidase, 35 μL horseradish peroxidase and 35 μL Amplex Red into 3395 μL 1× Amplex Red detection buffer. A total of 30 μL of detection mixture was added to each well. Fluorescence was measured in kinetic mode on a Biotek Synergy H4 plate reader at a wavelength of 573 nm for excitation and 610 nm for emission for 15 min and quantified from the data at 10 min. Incubations without added rat intestinal lysate were used to correct for the background amount of glucose present in the samples. Incubations without added test compound were used to define maximal enzyme activity. Percent inhibition of rat intestinal alpha-glucosidases was determined by dividing the amount of glucose detected in the presence of test compound by the amount of glucose detected in the maximal enzyme activity wells. All conditions were analyzed in triplicate. […] The final reaction solutions were the same as described above for the Amplex Red Detection kit. After a 20 min reaction time at 37° C., 100 μL of hexokinase glucose reagent was added to all test wells except for the no enzyme added control wells and no test compound added wells. The plate was incubated for a further 15 min at room temperature and the absorbance was read at 340 nm on a Biotek Synergy H4 plate reader. The percent inhibition of rat intestinal alpha-glucosidases was determined in a similar manner as described above.

GBA2 = GBA2 (Homo sapiens (Human), UniProt Q9HCG7); assay: Inhibition of GBA2 in cell lysate (4-methylumbelliferone glucopyranoside substrate); assay type: biochemical;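 also: homogenate of stably transfected HEK293T cells pre-treated with a GCase inhibitor, test compound preincubated 5 min at 37 °C, substrate reaction 20 min at 37 °C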
[2] = HEK293T-overexpressing GBA2 cellular homogenate, pH 5.5, read-out: GBA2 IC50

Chain of GBA2 (Q9HCG7 whole entry): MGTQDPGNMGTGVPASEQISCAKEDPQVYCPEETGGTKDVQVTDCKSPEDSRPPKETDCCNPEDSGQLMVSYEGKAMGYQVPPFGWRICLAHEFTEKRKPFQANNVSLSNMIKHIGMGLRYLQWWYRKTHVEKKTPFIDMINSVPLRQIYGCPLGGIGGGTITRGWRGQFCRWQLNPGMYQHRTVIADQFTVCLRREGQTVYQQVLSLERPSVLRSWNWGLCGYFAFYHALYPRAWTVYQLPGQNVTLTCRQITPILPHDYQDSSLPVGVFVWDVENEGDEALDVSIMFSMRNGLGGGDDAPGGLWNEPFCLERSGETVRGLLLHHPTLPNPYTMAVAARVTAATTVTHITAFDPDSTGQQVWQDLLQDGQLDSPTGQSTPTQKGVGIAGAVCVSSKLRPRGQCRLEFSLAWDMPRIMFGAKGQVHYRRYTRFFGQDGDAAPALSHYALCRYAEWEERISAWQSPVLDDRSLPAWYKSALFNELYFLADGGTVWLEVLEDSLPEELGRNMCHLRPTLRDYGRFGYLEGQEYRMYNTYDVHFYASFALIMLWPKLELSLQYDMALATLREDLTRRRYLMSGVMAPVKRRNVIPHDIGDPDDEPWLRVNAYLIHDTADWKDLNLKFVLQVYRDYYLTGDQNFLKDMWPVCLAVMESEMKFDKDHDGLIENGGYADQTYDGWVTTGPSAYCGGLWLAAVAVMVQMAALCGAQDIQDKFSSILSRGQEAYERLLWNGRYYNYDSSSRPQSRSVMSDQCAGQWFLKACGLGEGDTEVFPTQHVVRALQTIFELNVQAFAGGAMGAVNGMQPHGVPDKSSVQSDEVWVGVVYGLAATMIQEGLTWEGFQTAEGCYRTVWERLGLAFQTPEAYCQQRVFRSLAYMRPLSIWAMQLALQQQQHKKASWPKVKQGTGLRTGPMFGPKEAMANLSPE

OC[C@@H]1[C@@H](O)[C@H](O)[C@@H](O)CN1CCCCCOCC12CC3CC(CC(C3)C1)C2 [AMP-DNM, (2R,3R,4R,5S)-1-(5-((3R,5R,7R)-adamantan-1-ylmethoxy)pentyl)-2-(hydroxymethyl)piperidine-3,4,5-triol, reference compound]
rat α-glu. (% inhib.) [1]: 85%

O[C@H]1[C@H](O)CN(CCC2CCCCC2)C[C@@H]1O [Example 4, (3S,4r,5R)-1-(2-cyclohexylethyl)piperidine-3,4,5-triol]
IC50 (GBA2; [2]): < 100 nM
rat α-glu. (% inhib.) [1]: 14%

O[C@H]1[C@H](O)CN(CCCC2CCCCC2)C[C@@H]1O [Example 5, (3S,4r,5R)-1-(3-cyclohexylpropyl)piperidine-3,4,5-triol]
IC50 (GBA2; [2]): < 100 nM
rat α-glu. (% inhib.) [1]: 10%

O[C@H]1[C@H](O)CN(CCc2cccc(Cl)c2F)C[C@@H]1O [Example 6, (3S,4r,5R)-1-(3-chloro-2-fluorophenethyl)piperidine-3,4,5-triol]
IC50 (GBA2; [2]): < 100 nM
rat α-glu. (% inhib.) [1]: 3%

O[C@H]1[C@H](O)CN(CCc2ccc(Cl)c(Cl)c2)C[C@@H]1O [Example 8, (3S,4r,5R)-1-(3,4-dichlorophenethyl)piperidine-3,4,5-triol]
IC50 (GBA2; [2]): < 100 nM
rat α-glu. (% inhib.) [1]: 0%

CC(Cc1cccc(Cl)c1F)N1C[C@@H](O)[C@H](O)[C@@H](O)C1 (stereo partly drawn) [Example 16, (3S,4r,5R)-1-(1-(3-chloro-2-fluorophenyl)propan-2-yl)piperidine-3,4,5-triol]
IC50 (GBA2): 100 to 1000 nM
rat α-glu. (% inhib.) [1]: 7%

CC(CCc1cccc(Cl)c1F)N1C[C@@H](O)[C@H](O)[C@@H](O)C1 (stereo partly drawn) [Example 17, (3S,4r,5R)-1-(4-(3-chloro-2-fluorophenyl)butan-2-yl)piperidine-3,4,5-triol]
IC50 (GBA2; [2]): 100 to 1000 nM
rat α-glu. (% inhib.) [1]: 0%

O[C@H]1[C@H](O)CN(C[C@H]2CCN(c3ncccc3C(F)(F)F)C2)C[C@@H]1O [Example 19, (3S,4R,5R)-1-(((R)-1-(3-(trifluoromethyl)pyridin-2-yl)pyrrolidin-3-yl)methyl)piperidine-3,4,5-triol]
IC50 (GBA2; [2]): < 100 nM
rat α-glu. (% inhib.) [1]: 6%

O[C@H]1[C@H](O)CN(C[C@H]2CCN(c3nc4ccccc4o3)C2)C[C@@H]1O [Example 22, (3S,4R,5R)-1-(((R)-1-(benzo[d]oxazol-2-yl)pyrrolidin-3-yl)methyl)piperidine-3,4,5-triol]
IC50 (GBA2; [2]): < 100 nM
rat α-glu. (% inhib.) [1]: 4%

O[C@H]1[C@H](O)CN(C[C@H]2CCN(c3nc4ccccc4s3)C2)C[C@@H]1O [Example 23, (3S,4R,5R)-1-(((R)-1-(benzo[d]thiazol-2-yl)pyrrolidin-3-yl)methyl)piperidine-3,4,5-triol]
IC50 (GBA2; [2]): < 100 nM
rat α-glu. (% inhib.) [1]: 5%

O[C@H]1[C@H](O)CN(C[C@@H]2CCN(c3ncccc3C(F)(F)F)C2)C[C@@H]1O [Example 24, (3S,4S,5R)-1-(((S)-1-(3-(trifluoromethyl)pyridin-2-yl)pyrrolidin-3-yl)methyl)piperidine-3,4,5-triol]
IC50 (GBA2; [2]): < 100 nM
rat α-glu. (% inhib.) [1]: 3%

O[C@H]1[C@H](O)CN(C[C@@H]2CCN(c3cnccc3C(F)(F)F)C2)C[C@@H]1O [Example 25, (3S,4S,5R)-1-(((S)-1-(4-(trifluoromethyl)pyridin-3-yl)pyrrolidin-3-yl)methyl)piperidine-3,4,5-triol]
IC50 (GBA2; [2]): < 100 nM
rat α-glu. (% inhib.) [1]: 1%

O[C@H]1[C@H](O)CN(C[C@@H]2CCN(c3cncnc3C(F)(F)F)C2)C[C@@H]1O [Example 26, (3S,4S,5R)-1-(((S)-1-(4-(trifluoromethyl)pyrimidin-5-yl)pyrrolidin-3-yl)methyl)piperidine-3,4,5-triol]
IC50 (GBA2; [2]): < 100 nM
rat α-glu. (% inhib.) [1]: 0%

O[C@H]1[C@H](O)CN(C[C@@H]2CCN(c3nc(C(F)(F)F)cs3)C2)C[C@@H]1O [Example 27, (3S,4S,5R)-1-(((S)-1-(4-(trifluoromethyl)thiazol-2-yl)pyrrolidin-3-yl)methyl)piperidine-3,4,5-triol]
IC50 (GBA2; [2]): < 100 nM
rat α-glu. (% inhib.) [1]: 2%

O[C@H]1[C@H](O)CN(C[C@@H]2CCN(c3cccc4scnc34)C2)C[C@@H]1O [Example 28, (3S,4S,5R)-1-(((S)-1-(benzo[d]thiazol-4-yl)pyrrolidin-3-yl)methyl)piperidine-3,4,5-triol]
IC50 (GBA2; [2]): < 100 nM
rat α-glu. (% inhib.) [1]: 11%

CC(C)c1cnc(N2CCC[C@H](CN3C[C@@H](O)[C@H](O)[C@@H](O)C3)C2)s1 [Example 32, (3S,4R,5R)-1-(((R)-1-(5-isopropylthiazol-2-yl)piperidin-3-yl)methyl)piperidine-3,4,5-triol]
IC50 (GBA2; [2]): < 100 nM
rat α-glu. (% inhib.) [1]: 2%

O[C@H]1[C@H](O)CN(C[C@H]2CCCN(c3nc(C(F)(F)F)cs3)C2)C[C@@H]1O [Example 33, (3S,4R,5R)-1-(((R)-1-(4-(trifluoromethyl)thiazol-2-yl)piperidin-3-yl)methyl)piperidine-3,4,5-triol]
IC50 (GBA2; [2]): < 100 nM

O[C@H]1[C@H](O)CN(C[C@@H]2CCCN(c3cccc(C(F)(F)F)n3)C2)C[C@@H]1O [Example 37, (3S,4S,5R)-1-(((S)-1-(6-(trifluoromethyl)pyridin-2-yl)piperidin-3-yl)methyl)piperidine-3,4,5-triol]
IC50 (GBA2; [2]): 100 to 1000 nM
rat α-glu. (% inhib.) [1]: 0%

O[C@H]1[C@H](O)CN(C[C@@H]2CCCN(c3nc(C(F)(F)F)cs3)C2)C[C@@H]1O [Example 39, (3S,4S,5R)-1-(((S)-1-(4-(trifluoromethyl)thiazol-2-yl)piperidin-3-yl)methyl)piperidine-3,4,5-triol]
IC50 (GBA2; [2]): 100 to 1000 nM
rat α-glu. (% inhib.) [1]: 0%

O[C@H]1[C@H](O)CN(CC2Cc3ccccc3C2)C[C@@H]1O [Example 62, (3S,4r,5R)-1-((2,3-dihydro-1H-inden-2-yl)methyl)piperidine-3,4,5-triol]
IC50 (GBA2; [2]): < 100 nM
rat α-glu. (% inhib.) [1]: 12%

O[C@H]1[C@H](O)CN(CC2CCN(c3ccccc3)CC2)C[C@@H]1O [Example 106, (3S,4r,5R)-1-((1-phenylpiperidin-4-yl)methyl)piperidine-3,4,5-triol]
IC50 (GBA2; [2]): < 100 nM
rat α-glu. (% inhib.) [1]: 9%

O[C@H]1[C@H](O)CN(C[C@H]2CCN(c3cccc(C(F)(F)F)n3)C2)C[C@@H]1O [Example 142, (3S,4R,5R)-1-(((R)-1-(6-(trifluoromethyl)pyridin-2-yl)pyrrolidin-3-yl)methyl)piperidine-3,4,5-triol]
IC50 (GBA2; [2]): < 100 nM
rat α-glu. (% inhib.) [1]: 0%

O[C@H]1[C@H](O)CN(C[C@H]2CCN(c3cncc(C(F)(F)F)c3)C2)C[C@@H]1O [Example 146, (3S,4R,5R)-1-(((R)-1-(5-(trifluoromethyl)pyridin-3-yl)pyrrolidin-3-yl)methyl)piperidine-3,4,5-triol]
IC50 (GBA2; [2]): < 100 nM
rat α-glu. (% inhib.) [1]: 0%

O[C@H]1[C@H](O)CN(C[C@H]2CCN(c3ccc(C(F)(F)F)nc3)C2)C[C@@H]1O [Example 149, (3S,4R,5R)-1-(((R)-1-(6-(trifluoromethyl)pyridin-3-yl)pyrrolidin-3-yl)methyl)piperidine-3,4,5-triol]
IC50 (GBA2; [2]): < 100 nM
rat α-glu. (% inhib.) [1]: 0%

O[C@H]1[C@H](O)CN(C[C@@H]2CCN(c3ccc(C(F)(F)F)cn3)C2)C[C@@H]1O [Example 161, (3S,4S,5R)-1-(((S)-1-(5-(trifluoromethyl)pyridin-2-yl)pyrrolidin-3-yl)methyl)piperidine-3,4,5-triol]
IC50 (GBA2; [2]): < 100 nM
rat α-glu. (% inhib.) [1]: 0%

O[C@H]1[C@H](O)CN(C[C@@H]2CCN(c3ccc(C(F)(F)F)nc3)C2)C[C@@H]1O [Example 162, (3S,4S,5R)-1-(((S)-1-(6-(trifluoromethyl)pyridin-3-yl)pyrrolidin-3-yl)methyl)piperidine-3,4,5-triol]
IC50 (GBA2; [2]): < 100 nM
rat α-glu. (% inhib.) [1]: 0%

O[C@H]1[C@H](O)CN(C[C@H]2CCCN(c3cnccc3C(F)(F)F)C2)C[C@@H]1O [Example 167, (3S,4R,5R)-1-(((R)-1-(4-(trifluoromethyl)pyridin-3-yl)piperidin-3-yl)methyl)piperidine-3,4,5-triol]
IC50 (GBA2; [2]): < 100 nM
rat α-glu. (% inhib.) [1]: 4%

O[C@H]1[C@H](O)CN(Cc2ccc(N3CCCC3)cc2)C[C@@H]1O [Example 203, (3S,4r,5R)-1-(4-(pyrrolidin-1-yl)benzyl)piperidine-3,4,5-triol]
IC50 (GBA2; [2]): 100 to 1000 nM

CCCCN1C[C@H](O)[C@@H](O)[C@H](O)[C@H]1CO [NB-DNJ, (2R,3R,4R,5S)-1-butyl-2-(hydroxymethyl)piperidine-3,4,5-triol, reference compound]
rat α-glu. (% inhib.) [1]: 98%
